Laboratory results: patent US9382254B2, “Compounds and pharmaceutical compositions thereof for the treatment of cystic fibrosis” (Galapagos NV, priority 2013, dated 2016)
pEC50: −log10 of the molar value.

Experiments:
Assay type in all cases: cell-based
[1] = molecular target: T1, CFTR ΔF508 mutant (Homo sapiens, UniProt P13569, DEL508-508); test: YFP-halide influx assay for the CFTR-ΔF508 mutation (384 well, FDSS/μCell); conditions: CFBE41o- cells, CFTR-ΔF508, 1×D-PBS, fluorescence after 36 seconds
T1 construct: expressed in transfected cells; host or cells: CFBE41o- (adenoviral transduction)
T1 sequence (P13569 with tags, fused parts or gaps DEL508-508): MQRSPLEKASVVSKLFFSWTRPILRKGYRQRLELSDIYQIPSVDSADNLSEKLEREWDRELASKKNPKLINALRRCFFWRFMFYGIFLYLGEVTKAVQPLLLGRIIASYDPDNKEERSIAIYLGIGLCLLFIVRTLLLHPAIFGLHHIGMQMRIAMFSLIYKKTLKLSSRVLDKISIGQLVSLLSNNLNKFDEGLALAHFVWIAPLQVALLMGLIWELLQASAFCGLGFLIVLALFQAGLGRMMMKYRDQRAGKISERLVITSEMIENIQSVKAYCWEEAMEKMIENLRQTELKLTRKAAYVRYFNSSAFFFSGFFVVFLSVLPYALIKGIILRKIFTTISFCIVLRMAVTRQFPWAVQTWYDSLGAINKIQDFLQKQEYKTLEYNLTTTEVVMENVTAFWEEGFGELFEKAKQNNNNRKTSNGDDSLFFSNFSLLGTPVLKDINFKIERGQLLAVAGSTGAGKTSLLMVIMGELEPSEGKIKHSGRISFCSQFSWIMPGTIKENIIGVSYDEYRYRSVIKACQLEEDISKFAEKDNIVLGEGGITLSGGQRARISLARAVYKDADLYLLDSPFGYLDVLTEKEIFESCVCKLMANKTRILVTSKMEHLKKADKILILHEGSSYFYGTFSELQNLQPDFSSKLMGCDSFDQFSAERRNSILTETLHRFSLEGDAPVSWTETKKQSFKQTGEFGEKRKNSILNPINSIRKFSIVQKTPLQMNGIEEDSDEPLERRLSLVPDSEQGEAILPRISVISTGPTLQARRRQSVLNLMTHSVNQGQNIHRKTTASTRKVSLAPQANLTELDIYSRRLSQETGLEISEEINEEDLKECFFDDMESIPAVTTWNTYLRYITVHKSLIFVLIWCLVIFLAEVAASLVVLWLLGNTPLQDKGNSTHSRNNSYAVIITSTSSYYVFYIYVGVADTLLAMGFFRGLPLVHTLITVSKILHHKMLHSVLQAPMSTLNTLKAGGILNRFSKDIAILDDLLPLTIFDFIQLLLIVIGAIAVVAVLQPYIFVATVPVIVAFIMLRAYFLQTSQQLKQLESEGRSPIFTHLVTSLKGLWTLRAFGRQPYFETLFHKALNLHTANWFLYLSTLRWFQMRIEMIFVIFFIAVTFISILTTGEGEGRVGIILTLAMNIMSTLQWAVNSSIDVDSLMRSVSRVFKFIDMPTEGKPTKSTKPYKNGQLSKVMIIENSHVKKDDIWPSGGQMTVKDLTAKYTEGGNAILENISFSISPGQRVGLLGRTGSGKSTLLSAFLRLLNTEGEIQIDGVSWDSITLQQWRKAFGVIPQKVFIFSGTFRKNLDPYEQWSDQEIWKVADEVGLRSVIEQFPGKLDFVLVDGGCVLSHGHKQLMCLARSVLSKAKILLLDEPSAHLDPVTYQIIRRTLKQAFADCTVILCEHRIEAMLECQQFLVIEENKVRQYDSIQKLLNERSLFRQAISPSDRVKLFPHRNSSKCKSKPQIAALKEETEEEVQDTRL
How it was run: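 Potentiator read-out as 1−F/F0, F taken 36 s after iodide addition, EC50 fitted against compound concentration. Cells: CFBE41o- expressing ΔF508 CFTR plus halide-sensitive YFP via adenovirus, rescued by 27 °C for 24 h or 24 h modulator at 37 °C.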

[2] = molecular target: T2, CFTR-G178R (Homo sapiens, UniProt P13569, G178R); test: YFP-halide influx assay for the CFTR-G178R
T2 construct: expressed in transfected cells
T2 sequence (P13569 whole entry G178R): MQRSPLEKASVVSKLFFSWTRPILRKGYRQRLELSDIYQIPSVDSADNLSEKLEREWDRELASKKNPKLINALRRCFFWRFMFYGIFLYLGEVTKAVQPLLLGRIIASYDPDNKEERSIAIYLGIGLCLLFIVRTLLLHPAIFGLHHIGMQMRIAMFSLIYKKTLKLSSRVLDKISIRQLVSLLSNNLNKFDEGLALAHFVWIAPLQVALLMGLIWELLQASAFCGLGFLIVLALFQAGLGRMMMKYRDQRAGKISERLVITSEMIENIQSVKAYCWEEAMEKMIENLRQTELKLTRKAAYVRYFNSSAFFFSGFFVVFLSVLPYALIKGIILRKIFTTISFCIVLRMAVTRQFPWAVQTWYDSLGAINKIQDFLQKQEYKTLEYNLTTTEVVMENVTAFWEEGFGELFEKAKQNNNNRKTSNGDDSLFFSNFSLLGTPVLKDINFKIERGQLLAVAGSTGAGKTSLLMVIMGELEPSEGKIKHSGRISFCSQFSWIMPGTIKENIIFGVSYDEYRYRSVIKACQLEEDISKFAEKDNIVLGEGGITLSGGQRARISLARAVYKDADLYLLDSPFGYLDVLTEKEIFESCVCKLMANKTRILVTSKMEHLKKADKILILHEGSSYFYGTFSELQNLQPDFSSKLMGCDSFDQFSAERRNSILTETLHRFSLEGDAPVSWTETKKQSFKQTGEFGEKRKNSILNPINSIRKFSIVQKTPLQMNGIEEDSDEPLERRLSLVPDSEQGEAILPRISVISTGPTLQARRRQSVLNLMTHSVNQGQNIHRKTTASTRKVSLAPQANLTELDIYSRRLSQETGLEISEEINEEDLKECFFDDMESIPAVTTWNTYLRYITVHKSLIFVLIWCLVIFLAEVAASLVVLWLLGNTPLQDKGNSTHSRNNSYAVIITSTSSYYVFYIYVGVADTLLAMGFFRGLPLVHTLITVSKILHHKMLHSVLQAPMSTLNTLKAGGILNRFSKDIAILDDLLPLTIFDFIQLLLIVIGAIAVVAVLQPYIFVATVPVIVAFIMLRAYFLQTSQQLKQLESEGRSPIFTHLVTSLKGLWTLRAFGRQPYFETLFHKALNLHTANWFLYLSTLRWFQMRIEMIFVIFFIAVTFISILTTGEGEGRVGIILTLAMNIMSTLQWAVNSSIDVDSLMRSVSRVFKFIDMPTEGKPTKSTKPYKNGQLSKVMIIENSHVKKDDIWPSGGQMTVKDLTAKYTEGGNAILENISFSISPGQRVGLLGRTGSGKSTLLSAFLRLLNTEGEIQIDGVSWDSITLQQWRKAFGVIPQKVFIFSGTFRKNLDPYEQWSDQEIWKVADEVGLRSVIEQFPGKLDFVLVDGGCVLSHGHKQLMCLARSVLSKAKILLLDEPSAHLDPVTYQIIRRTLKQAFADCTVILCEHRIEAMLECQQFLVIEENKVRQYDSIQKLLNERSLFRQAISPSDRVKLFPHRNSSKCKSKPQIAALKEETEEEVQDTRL
From the text: (§1) The YFP halide influx assay measures the functionality of the cystic fibrosis Transmembrane Conductance regulator (CFTR) channels. The assay is used to evaluate the capacity of compounds to increase the channel opening of existing mutant CFTR channels in the membrane. It makes use of the observation that the yellow fluorescent protein (YFP) variant YFP H148Q, I152L, […] has its fluorescence substantially quenched by halide ions like Cl^− and I^−. (Galietta, Haggie, & Verkman, 2001)
(§2) For this purpose, HEK293-cells are seeded in 96 well plates. During seeding, the cells are reverse-transfected with plasmid vectors that direct the expression of the CFTR G551D mutant and of the YFP reporter. Cells are incubated at 37° C., 5% CO2 for 24 hours so as to allow for sufficient expression of the CFTR protein.
(§3) The I^−-induced quenching of fluorescence is recorded immediately after injection of I^− for 7 seconds. The capacity of a compound to increase the channel opening is directly correlated with the decrease in fluorescence, and is expressed as (1-(fluorescence after 7 seconds (F)/fluorescence before injection (F0))) and an EC50 can be derived from a (1-F/F0) vs compound concentration plot.
(§4) Similar YHA assays were developed for other channel gating defective or channel conductance defective CFTR mutants to determine effect of compound on channel activity. Examples of mutants are G178R, G1349D, S549N, R117H, R334W. This assay is also used for additional class I CFTR mutants, including G542X, W1282X; class II mutants including N1303K, and for class III mutants including S1251N.

[3] = molecular target: T3, CFTR-S549N (Homo sapiens, UniProt P13569, S549N); test: YFP-halide influx assay for the CFTR-S549N
T3 construct: expressed in transfected cells
T3 sequence (P13569 whole entry S549N): as the sequence (P13569 whole entry G178R) above, with R178G, S549N counted along it
From the text: as §1, §2, §3, §4

[4] = molecular target: T4, CFTR-R117H (Homo sapiens, UniProt P13569, R117H); test: YFP-halide influx assay for the CFTR-R117H
T4 construct: expressed in transfected cells
T4 sequence (P13569 whole entry R117H): as the sequence (P13569 whole entry G178R) above, with R117H, R178G counted along it
From the text: as §1, §2, §3, §4

[5] = molecular target: T5, CFTR-G1349D (Homo sapiens, UniProt P13569, G1349D); test: YFP-halide influx assay for the CFTR-G1349D
T5 construct: expressed in transfected cells
T5 sequence (P13569 whole entry G1349D): as the sequence (P13569 whole entry G178R) above, with R178G, G1349D counted along it
From the text: as §1, §2, §3, §4

[6] = molecular target: T6, CFTR G551D mutant (Homo sapiens, UniProt P13569, G551D); test: YFP-halide influx assay for the CFTR-G551D mutation; conditions: HEK293 cells, forskolin 10.67 μM
T6 construct: expressed in transfected cells; host or cells: HEK293 (reverse transfection with plasmid)
T6 sequence (P13569 whole entry G551D): as the sequence (P13569 whole entry G178R) above, with R178G, G551D counted along it
How it was run: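 Channel opening potentiation measured as 1−F/F0, where F is YFP fluorescence 7 s after iodide injection and F0 before; EC50 taken from concentration plot. Cells: HEK293 transiently expressing CFTR G551D plus halide-sensitive YFP (H148Q, I152L, F47L), 24 h at 37 °C, 5% CO2.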

| SMILES | pEC50 [1] | pEC50 [2] | pEC50 [3] | pEC50 [4] | pEC50 [5] | pEC50 [6] |
| --- | --- | --- | --- | --- | --- | --- |
| CC(C)(O)C(=O)Nc1sc(S(=O)(=O)c2cc(F)ccc2Cl)cc1C(N)=O [Compound 337, 5-(2-chloro-5-fluoro-phenyl)sulfonyl-2-[(2-hydroxy-2-methyl-propanoyl)amino] thiophene-3-carboxamide] | 8.26 | 7.57 | 6.97 | 7.25 | 7.31 | 6.06 |
| CC(C)(O)C(=O)Nc1sc(S(=O)(=O)c2ccc(OC(F)(F)F)c(F)c2)cc1C(N)=O [Compound 377, 5-[3-fluoro-4-(trifluoromethoxy)phenyl] sulfonyl-2-[(2-hydroxy-2-methyl-propanoyl)amino] thiophene-3-carboxamide] | 7.39 | 6.62 | 6.03 | 6.11 | 6.87 | 6.15 |
| COc1ccc(C(F)(F)F)c(S(=O)(=O)c2cc(C(N)=O)c(NC(=O)C(C)(C)O)s2)n1 [Compound 420, 2-[(2-hydroxy-2-methyl-propanoyl)amino]-5-[[6-methoxy-3-(trifluoromethyl)-2-pyridyl]sulfonyl] thiophene-3-carboxamide] | 8.09 | 6.96 | 6.84 | 7.01 | 7.02 | 6.71 |
| COc1ccc(OC(F)(F)F)c(S(=O)(=O)c2cc(C(N)=O)c(NC(=O)C(C)(C)O)s2)c1 [Compound 373, 2-[(2-hydroxy-2-methyl-propanoyl)amino]-5-[5-methoxy-2-(trifluoromethoxy)phenyl]sulfonyl-thiophene-3-carboxamide] | 7.88 | 7.71 | 7.15 | 7.34 | 7.50 | 7.00 |
| CC(C)(O)C(=O)Nc1sc(S(=O)(=O)c2ccc(OC(F)(F)F)cc2F)cc1C(N)=O [Compound 375, 5-[2-fluoro-4-(trifluoromethoxy)phenyl] sulfonyl-2-[(2-hydroxy-2-methyl-propanoyl)amino] thiophene-3-carboxamide] | 8.12 | 7.03 | 6.70 | 6.60 | 6.84 | 6.17 |
| CC(C)(O)C(=O)Nc1sc(S(=O)(=O)c2ccsc2C(F)(F)F)cc1C(N)=O [Compound 425, 2-[(2-hydroxy-2-methyl-propanoyl)amino]-5-[[2-(trifluoromethyl)-3-thienyl]sulfonyl] thiophene-3-carboxamide] | 8.16 | 5.90 | 6.15 | 6.84 | 6.44 | 6.12 |
| COc1cc(S(=O)(=O)c2cc(C(N)=O)c(NC(=O)C(C)(C)O)s2)c(OC(F)F)cn1 [Compound 418, 5-[[5-(difluoromethoxy)-2-methoxy-4-pyridyl]sulfonyl]-2-[(2-hydroxy-2-methyl-propanoyl)amino] thiophene-3-carboxamide] | 8.09 | 7.84 | 6.74 | 6.72 | 7.74 | 6.41 |
| CC(C)(O)C(=O)Nc1sc(S(=O)(=O)c2cc(F)ccc2Br)cc1C(N)=O [Compound 323, 5-(2-Bromo-5-fluoro-benzenesulfonyl)-2-(2-hydroxy-2-methyl-propionylamino)-thiophene-3-carboxylic acid amide] | 8.03 | 6.72 | 5.82 | 6.47 | 6.34 | 6.64 |

Further lines, results first:

| pEC50 [1] | pEC50 [2] | pEC50 [3] | pEC50 [4] | pEC50 [5] | pEC50 [6] | SMILES |
| --- | --- | --- | --- | --- | --- | --- |
| 7.59 | 6.61 | 5.99 | 6.56 | 5.48 | 5.85 | COc1cc(S(=O)(=O)c2cc(C(N)=O)c(NC(=O)C(C)(C)O)s2)c(OC(F)F)cc1F [Compound 402, 5-[2-(difluoromethoxy)-4-fluoro-5-methoxy-phenyl] sulfonyl-2-[(2-hydroxy-2-methyl-propanoyl)amino] thiophene-3-carboxamide] |
| 7.96 | 7.37 | 6.28 | 6.27 | 6.83 | 5.75 | CC(C)(O)C(=O)Nc1sc(S(=O)(=O)c2cccc(C(F)(F)F)c2)cc1C(N)=O [Compound 408, 2-[(2-hydroxy-2-methyl-propanoyl)amino]-5-[3-(trifluoromethyl)phenyl]sulfonyl-thiophene-3-carboxamide] |
| 8.59 | 8.01 | 7.58 | 7.08 | 8.22 | 7.21 | CC(C)(O)C(=O)Nc1sc(S(=O)(=O)c2nc(C(C)(C)C)ccc2C(F)(F)F)cc1C(N)=O [Compound 426, 5-[[6-tert-butyl-3-(trifluoromethyl)-2-pyridyl]sulfonyl]-2-[(2-hydroxy-2-methyl-propanoyl)amino] thiophene-3-carboxamide] |
| 7.38 | 6.17 | 5.99 | 5.87 | 6.36 | 5.65 | CC(C)(O)C(=O)Nc1sc(S(=O)(=O)c2cccc(C(F)(F)F)n2)cc1C(N)=O [Compound 427, 2-[(2-hydroxy-2-methyl-propanoyl)amino]-5-[[6-(trifluoromethyl)-2-pyridyl]sulfonyl] thiophene-3-carboxamide] |
| 8.50 | 6.75 | 6.48 | 7.01 | 5.61 | 6.39 | CC(C)(O)C(=O)Nc1sc(S(=O)(=O)c2nc(Cl)ccc2C(F)(F)F)cc1C(N)=O [Compound 424, 5-[[6-chloro-3-(trifluoromethyl)-2-pyridyl]sulfonyl]-2-[(2-hydroxy-2-methyl-propanoyl)amino] thiophene-3-carboxamide] |
| 7.81 | 7.19 | 6.27 | 6.35 | 6.67 | 6.06 | CC(C)(O)C(=O)Nc1sc(S(=O)(=O)c2ccc(C(F)(F)F)c(F)c2)cc1C(N)=O [Compound 422, 5-[3-fluoro-4-(trifluoromethyl)phenyl]sulfonyl-2-[(2-hydroxy-2-methyl-propanoyl)amino] thiophene-3-carboxamide] |
| 7.65 | 7.06 | 6.68 | 7.31 | 7.08 | 5.85 | CC(CO)C(=O)Nc1sc(S(=O)(=O)c2ccc(Cl)cc2OC(F)(F)F)cc1C(N)=O (stereo not drawn) [Compound 387, 5-[4-chloro-2-(trifluoromethoxy)phenyl] sulfonyl-2-[(3-hydroxy-2-methyl-propanoyl)amino] thiophene-3-carboxamide] |
| 7.54 | 7.16 | 6.66 | 7.04 | 6.49 | 6.31 | CC(C)(O)C(=O)Nc1sc(S(=O)(=O)c2ccc(C(F)(F)F)cn2)cc1C(N)=O [Compound 363, 2-[(2-hydroxy-2-methyl-propanoyl)amino]-5-[[5-(trifluoromethyl)-2-pyridyl]sulfonyl]thiophene-3-carboxamide] |
| 7.96 | 6.79 | 5.72 | 6.60 | 5.95 | 6.07 | CC(C)(O)C(=O)Nc1sc(S(=O)(=O)c2ccc(C(F)(F)F)c(Cl)n2)cc1C(N)=O [Compound 423, 5-[[6-chloro-5-(trifluoromethyl)-2-pyridyl]sulfonyl]-2-[(2-hydroxy-2-methyl-propanoyl)amino] thiophene-3-carboxamide] |
| 8.43 | 7.35 | 6.47 | 6.93 | 7.32 | 6.82 | CC(O)C(=O)Nc1sc(S(=O)(=O)c2cc(F)ccc2CC(F)(F)F)cc1C(N)=O (stereo not drawn) [Compound 334, 5-[5-fluoro-2-(2,2,2-trifluoroethyl)phenyl] sulfonyl-2-(2-hydroxypropanoylamino) thiophene-3-carboxamide] |
| 7.21 | 6.87 | 6.06 | 6.31 | 5.98 | 5.31 | CC(C)(O)C(=O)Nc1sc(S(=O)(=O)c2ncccc2C(F)(F)F)cc1C(N)=O [Compound 411, 2-[(2-hydroxy-2-methyl-propanoyl)amino]-5-[[3-(trifluoromethyl)-2-pyridyl]sulfonyl] thiophene-3-carboxamide] |
